Source: patent publication US5840918A, “Isoprenyl transferase inhibitors” (Eisai Co., Ltd., priority 1997, dated 1998)

Tests used:
[1] = biological target: T1, FTase (Bos taurus, UniProt P29702+P49355); experiment: Inhibition of FTase-mediated prenylation (in vitro prenylation assay); format: biochemical; conditions: Table 1; partially purified FTase, 3 μM recombinant H-ras, 440 nM [3H]FPP, 15 min 37° C
T1 construct: bovine brain by inference from the cited Moores et al. 1991
Excerpt: (§1) Nanomolar concentrations of the indicated compounds were sufficient to inhibit farnesylation of ras proteins in vitro. For screening candidate compounds useful for the treatment of ras-associated tumors, the FTase assay is preferred. […] Substitutions which confer GGTase specificity as taught herein also produced potent inhibitors of GGTase.

[2] = biological target: GGTase; experiment: Inhibition of GGTase-mediated prenylation (in vitro prenylation assay); format: biochemical; conditions: Table 1; partially purified GGTase, 5 μM recombinant H-ras (61L, CAIL), 1 μM [3H] geranylgeranyl diphosphate
Excerpt: as §1

[3] = system: H-ras farnesylation in H-ras (61L) transformed NIH3T3 fibroblasts; experiment: Inhibition of H-ras farnesylation in whole cells (Western blot); format: cell-based, mouse
Procedure: The ability of compounds of the invention to inhibit H-ras farnesylation and rap1 geranylgeranylation in whole cells was determined. H-ras (61L) transformed NIH3T3 fibroblasts were generously provided by C. Der, Univ. N. Carolina. These fibroblasts were treated for 24 h with 50 μM lovastatin (control) or the indicated concentrations of inhibitor. The cells were lysed in 1% NP-40, 5 mM Tris-HCl (pH 8.0), 5 mM EDTA, 0.1 mM N-tosyl-L-phenylalanine chloromethyl ketone, 0.1 mM N-tosyl-L-lysine chloromethyl ketone, and 1 mM phenylmethylsulfonyl fluoride. The lysate was centrifuged (15000×g, 5 min.) and the supernatant was used as a cell extract. […] After transfer to IMMOBILON P™ membrane (Millipore), the blots were probed with LA069 mouse monoclonal antibody to H-ras (Quality Biotech), or rabbit polyclonal antibody to rap1/Krev (Santa Cruz Biotechnology). All Western blots were developed using ECL chemiluminescent reagents (Amersham).

[4] = Mus musculus, NIH3T3, 24 h, Table 2

SMILES	IC50 [1] [nM]	IC50 [2] [nM]	IC50 [3, 4] [nM]	IC50 ([3]; Mus musculus, NIH3T3, Table 2, 24 h) [nM]	IC50 ([3]; Table 2, 24 h) [nM]
CSCC[C@H](NC(=O)C(/C=C/C(/C=C/CCS)C(C)C)Cc1ccccc1)C(=O)O (single isomer, unassigned) [PD052]	2810	8050			
CSCC[C@H](NC(=O)C(/C=C/C(/C=C/CCS)C(C)C)Cc1ccccc1)C(=O)O (single isomer, unassigned) [PD112]	2220	8050	193000		
CSCC[C@H](NC(=O)C(/C=C/[C@@H](/C=C/C(N)CS)C(C)(C)C)C(C)C)C(=O)O (single isomer, unassigned) [PD152]	23	44	320		
COC(=O)[C@H](CCS(C)(=O)=O)NC(=O)C(Cc1cccs1)NC[C@@H](/C=C/C(N)CS)C(C)C (stereo partly shown) [PA011]	140	11000	100		
COC(=O)[C@H](CCS(C)(=O)=O)NC(=O)C(Cc1cccs1)N(C)C[C@@H](/C=C/C(N)CS)C(C)C (stereo partly shown) [PA021]	28	7100	80		
CSCC[C@H](NC(=O)C(Cc1cccs1)NC[C@@H](/C=C/C(N)CS)C(C)C)C(=O)O (stereo partly shown) [PA031]	3.6	215	1000		
CSCC[C@H](NC(=O)C(Cc1ccccc1)NC[C@@H](/C=C/C(N)CS)C(C)C)C(=O)O (stereo partly shown) [PA041]	2.5	56	3500		
CC[C@H](C)[C@H](NC[C@@H](/C=C/C(N)CS)C(C)C)C(=O)N[C@@H](CCSC)C(=O)O (stereo partly shown) [PA051]	20	76	1900		
CSCC[C@H](NC(=O)C(NC[C@@H](/C=C/C(N)CS)C(C)C)C(C)C)C(=O)O (stereo partly shown) [PA061]	2.1	48	580		
CSCC[C@H](NC(=O)C(Cc1cccs1)N(C)C[C@@H](/C=C/C(N)CS)C(C)C)C(=O)O (stereo partly shown) [PA071]	22	500	3100		
COC(=O)[C@H](CCSC)NC(=O)C(Cc1cccs1)NC[C@@H](/C=C/C(N)CS)C(C)C (stereo partly shown) [PA081]	102	2660	25		
COC(=O)[C@H](CCSC)NC(=O)C(Cc1ccccc1)NC[C@@H](/C=C/C(N)CS)C(C)C (stereo partly shown) [PA091]	170	2380	100		
COC(=O)[C@H](CCSC)NC(=O)C(NC[C@@H](/C=C/C(N)CS)C(C)C)C(C)C (stereo partly shown) [PA101]	170	1300	240		
CC(C)[C@H](/C=C/C(N)CS)CNC(Cc1cccs1)C(=O)N[C@@H](CCS(C)(=O)=O)C(=O)O (stereo partly shown) [PA111]	13	270		130	
CC(C)[C@H](/C=C/C(N)CS)CN(C)C(Cc1cccs1)C(=O)N[C@@H](CCS(C)(=O)=O)C(=O)O (stereo partly shown) [PA121]	15	380	580		
COC(=O)[C@H](CCSC)NC(=O)C(Cc1cccs1)N(C)C[C@@H](/C=C/C(N)CS)C(C)C (stereo partly shown) [PA131]	28	1800	39		
CC[C@H](C)[C@H](NC[C@@H](/C=C/C(N)CS)C(C)C)C(=O)N[C@@H](CCSC)C(=O)OC (stereo partly shown) [PA141]	95	880	17		
CSCC[C@H](NC(=O)C(/C=C/[C@@H](/C=C/C(N)CS)C(C)(C)C)Cc1ccccc1)C(=O)O (stereo partly shown) [PD012]	38	620			72000
CC(C)C(/C=C/[C@@H](/C=C/C(N)CS)C(C)C)C(=O)N[C@@H](CCC(N)=O)C(=O)O (stereo partly shown) [PD022]	5.2	3060	400		
CSCC[C@H](NC(=O)C(/C=C/[C@@H](/C=C/C(N)CS)C(C)C)C(C)C)C(=O)N1CCOCC1 (stereo partly shown) [PD032]	450	2860	1950		
CSCC[C@H](NC(=O)C(/C=C/[C@@H](/C=C/C(N)CS)C(C)C)C(C)C)C(N)=O (stereo partly shown) [PD042]	5	1620	1950		

SMILES	IC50 [1] [nM]	IC50 [2] [nM]	IC50 [3, 4] [nM]	IC50 ([3]; Mus musculus, NIH3T3, Table 2, 24 h) [nM]	IC50 ([3]; Table 2, 24 h) [nM]
C[C@H](/C=C/C(N)CS)/C=C/C(Cc1ccccc1)C(=O)N[C@@H](CCC(N)=O)C(=O)O (stereo partly shown) [PD062]	200	1760			21000
CSCC[C@H](NC(=O)C(/C=C/[C@@H](/C=C/C(N)CS)C(C)C)C(C)C)C(=O)N(C)Cc1ccccn1 (stereo partly shown) [PD072]	42	680	7400		
CSCCC(=O)NCC(/C=C/[C@@H](/C=C/[C@@H](N)CS)C(C)C)C(C)C (stereo partly shown) [PD082]	1570				
CC(C)C(/C=C/[C@@H](/C=C/C(N)CS)C(C)C)C(=O)N[C@H]1CCOC1=O (stereo partly shown) [PD092]	52	3200	780		
C[C@H](/C=C/C(N)CS)/C=C/C(Cc1ccccc1)C(=O)N[C@@H](CCC(N)=O)C(=O)O (stereo partly shown) [PD102]	394				75000
CSCCC(NC(=O)C(/C=C\[C@@H](/C=C/C(N)CS)C(C)C)C(C)C)C(=O)O (stereo partly shown) [PD122]	3	10	400		
COC(=O)[C@H](CCS(C)(=O)=O)NC(=O)C(/C=C/[C@@H](/C=C/C(N)CS)C(C)C)C(C)C (stereo partly shown) [PD132]	245	4770	2600		
CSCC[C@H](NC(=O)C(/C=C/[C@@H](/C=C/C(N)CS)C(C)(C)C)C(C)C)C(=O)O (stereo partly shown) [PD142]	42	2120	7300		
CSCC[C@H](NC(=O)C(/C=C/C(/C=C/CCS)C(C)C)Cc1ccccc1)C(=O)O (stereo partly shown) [PD162]	260	4570	326000		
CC(C)C(/C=C/[C@@H](/C=C/C(N)CS)C(C)C)C(=O)N[C@@H](CCS(C)(=O)=O)C(=O)O (stereo partly shown) [PD172]	7	750	13100		
CSCC[C@H](NC(=O)C(/C=C/[C@@H](/C=C/C(N)CS)C(C)(C)C)Cc1ccccc1)C(=O)O (stereo partly shown) [PD182]	< 1	63.3			2800
CSCC[C@H](NC(=O)C(/C=C/[C@@H](/C=C/C(N)CS)C(C)C)C(C)C)C(=O)NCc1ccccn1 (stereo partly shown) [PD192]	296	2990	180		
CC(C)C(/C=C/[C@@H](/C=C/C(N)CS)C(C)C)C(=O)N[C@@H](CO)C(=O)O (stereo partly shown) [PD202]	17	1120	1950		
CSCCC(NC(=O)C(C=CC(C=CC(N)CSSCC(N)C=CC(C=CC(Cc1ccccc1)C(=O)NC(CCSC)C(=O)O)C(C)C)C(C)C)Cc1ccccc1)C(=O)O (stereo not shown) [PD212]	3	4.5	110		
CSCC[C@H](NC(=O)C(/C=C/[C@@H](/C=C/[C@@H](N)CS)C(C)C)C(C)C)C(=O)NC(C)(C)C (stereo partly shown) [PD222]	710	3040	> 50000		
CSCC[C@H](NC(=O)C(/C=C/[C@@H](/C=C/C(N)CS)C(C)C)C(C)C)C(=O)O (stereo partly shown) [PD341]	0.2		290		
CC(C)[C@@H](/C=C\C(Cc1ccccc1)C(=O)NC(CO)C(=O)O)/C=C/C(N)CS (stereo partly shown) [PD361]	0.1		3500		
COC(=O)C(CCSC)NC(=O)C(/C=C\[C@@H](/C=C/C(N)CS)C(C)C)Cc1ccccc1 (stereo partly shown) [PD371]	38		90		
CC(C)CC(NC(=O)C(/C=C\[C@@H](/C=C/C(N)CS)C(C)C)Cc1ccccc1)C(=O)O (stereo partly shown) [PD381]	80				
CSCC[C@H](NC(=O)C(/C=C/[C@@H](/C=C/C(N)CS)Cc1ccccc1)C(C)C)C(=O)O (stereo partly shown) [PD391]	29		16400		
CSCC[C@H](NCC(/C=C\[C@@H](/C=C/C(N)CS)C(C)C)Cc1ccccc1)C(=O)O (stereo partly shown) [PD431]	6	1080			
